Data taken from ChEMBL document CHEMBL4431395, “Cellular Activity of New Small Molecule Protein Arginine Deiminase 3 (PAD3) Inhibitors” (ACS Med Chem Lett, 2016).
pIC50: −log10 of the molar value.

Key:
[1] = biological target: Protein-arginine deiminase type-2 (Homo sapiens, UniProt Q9Y2J8); assay: Inhibition of recombinant human 6His-tagged PAD2 assessed as reduction in residual activity preincubated for 15 mins followed by addition of N-benzoylated arginine ethyl ester hydrochloride measured after 15 mins by colder assay
[2] = biological target: T1, Protein-arginine deiminase type-1 (Homo sapiens, UniProt Q9ULC6); assay: Inhibition of recombinant human 6His-tagged PAD1 assessed as reduction in residual activity preincubated for 15 mins followed by addition of N-benzoylated arginine ethyl ester hydrochloride measured after 15 mins by colder assay
T1 sequence (Q9ULC6 whole entry): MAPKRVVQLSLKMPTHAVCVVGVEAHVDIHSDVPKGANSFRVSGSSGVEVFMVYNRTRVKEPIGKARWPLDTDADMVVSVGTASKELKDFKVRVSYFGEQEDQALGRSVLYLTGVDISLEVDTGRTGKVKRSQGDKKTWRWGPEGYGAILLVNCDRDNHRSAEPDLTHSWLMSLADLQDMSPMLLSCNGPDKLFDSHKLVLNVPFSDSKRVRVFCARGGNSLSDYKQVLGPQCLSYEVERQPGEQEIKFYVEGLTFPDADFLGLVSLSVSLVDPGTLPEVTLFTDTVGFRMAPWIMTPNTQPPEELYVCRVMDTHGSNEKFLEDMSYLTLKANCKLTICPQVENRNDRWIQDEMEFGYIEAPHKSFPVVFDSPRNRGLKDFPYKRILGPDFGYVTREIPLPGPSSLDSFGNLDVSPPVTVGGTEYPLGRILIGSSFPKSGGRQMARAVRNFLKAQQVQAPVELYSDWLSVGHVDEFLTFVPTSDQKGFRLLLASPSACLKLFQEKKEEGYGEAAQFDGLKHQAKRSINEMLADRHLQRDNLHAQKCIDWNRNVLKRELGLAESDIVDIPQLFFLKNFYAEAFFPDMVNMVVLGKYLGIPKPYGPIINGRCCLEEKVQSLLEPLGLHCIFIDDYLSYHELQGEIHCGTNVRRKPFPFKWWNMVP

[3] = biological target: Protein-arginine deiminase type-4 (Homo sapiens, UniProt Q9UM07); assay: Inhibition of recombinant human GST-tagged PAD4 expressed in Escherichia coli BL21-DE3 pLysS assessed as reduction in reduction in residual activity preincubated for 15 mins followed by addition of N-benzoylated arginine ethyl ester hydrochloride measured after 15 mins by colder assay
Chain of Protein-arginine deiminase type-4 (Q9UM07 whole entry): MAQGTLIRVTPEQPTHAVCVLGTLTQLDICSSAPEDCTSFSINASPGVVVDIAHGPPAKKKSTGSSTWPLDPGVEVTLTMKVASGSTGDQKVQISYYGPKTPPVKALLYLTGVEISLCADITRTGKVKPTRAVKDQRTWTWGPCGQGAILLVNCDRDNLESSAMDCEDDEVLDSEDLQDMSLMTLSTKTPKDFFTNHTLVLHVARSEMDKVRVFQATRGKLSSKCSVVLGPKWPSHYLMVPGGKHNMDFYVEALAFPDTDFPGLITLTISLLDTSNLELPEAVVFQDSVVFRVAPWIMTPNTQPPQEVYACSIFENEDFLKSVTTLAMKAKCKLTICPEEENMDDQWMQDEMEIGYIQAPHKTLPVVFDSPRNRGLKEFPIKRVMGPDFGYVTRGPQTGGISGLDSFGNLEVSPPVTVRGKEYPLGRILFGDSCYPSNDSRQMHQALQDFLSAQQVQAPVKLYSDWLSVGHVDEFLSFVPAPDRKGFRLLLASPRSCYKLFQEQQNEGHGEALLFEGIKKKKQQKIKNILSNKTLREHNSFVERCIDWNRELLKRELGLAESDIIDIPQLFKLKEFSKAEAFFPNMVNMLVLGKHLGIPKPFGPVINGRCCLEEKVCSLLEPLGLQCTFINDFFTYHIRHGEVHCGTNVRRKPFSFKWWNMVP

Chain of Protein-arginine deiminase type-2 (Q9Y2J8 whole entry): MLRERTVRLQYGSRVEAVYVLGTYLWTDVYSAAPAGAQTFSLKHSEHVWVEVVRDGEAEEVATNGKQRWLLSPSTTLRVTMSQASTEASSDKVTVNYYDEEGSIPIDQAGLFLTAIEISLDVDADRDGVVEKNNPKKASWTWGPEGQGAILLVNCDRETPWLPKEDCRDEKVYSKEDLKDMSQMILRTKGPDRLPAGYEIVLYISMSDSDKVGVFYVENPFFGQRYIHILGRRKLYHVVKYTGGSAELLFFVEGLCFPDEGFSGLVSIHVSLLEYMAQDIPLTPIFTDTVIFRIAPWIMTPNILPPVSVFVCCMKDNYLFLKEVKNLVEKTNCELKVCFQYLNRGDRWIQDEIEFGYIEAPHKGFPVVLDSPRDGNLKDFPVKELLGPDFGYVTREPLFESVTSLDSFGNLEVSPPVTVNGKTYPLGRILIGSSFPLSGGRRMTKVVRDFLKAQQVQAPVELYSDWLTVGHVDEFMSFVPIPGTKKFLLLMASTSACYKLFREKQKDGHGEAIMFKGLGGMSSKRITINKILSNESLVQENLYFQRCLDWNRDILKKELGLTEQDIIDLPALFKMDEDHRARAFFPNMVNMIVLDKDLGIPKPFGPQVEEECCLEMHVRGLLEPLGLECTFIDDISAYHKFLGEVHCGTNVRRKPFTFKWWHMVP

| Structure (SMILES) | pIC50 [1] | pIC50 [2] | pIC50 [3] |
| --- | --- | --- | --- |
| N=C(CCl)NCCOC(=O)NCc1cccc(-c2ccccc2)c1 | 3.82 | < 3.30 | – |
| N=C(CCl)NCCCc1nc(Cl)c(-c2cccc(-c3ccccc3)c2)[nH]1 | – | 3.79 | – |
| N=C(CCl)NCCNC(=O)NCc1cccc(-c2ccccc2)c1 | 3.85 | – | 3.89 |
| N=C(CCl)NC/C=C/C(=O)NCc1cccc(-c2ccccc2)c1 | – | 3.90 | – |
| N=C(CCl)NCC#CC(=O)NCc1cccc(-c2ccccc2)c1 | 3.82 | 3.39 | – |
| N=C(CCl)NCCCc1cn(-c2cccc(-c3ccccc3)c2)nn1 | 3.96 | 3.53 | – |
